Reference: patent US5519115A, “Reverse antimicrobial peptides” (priority 1993, dated 1996)
Where two headings read alike, the source gives them in different places. Ends that are not written are not given here.

How the values were obtained:
[1] = tested on: maize BMS suspension cells; assay: Whole cell phytotoxicity screening (oxygen consumption); type: cell-based
Procedure: Oxygen consumed by maize BMS suspension cells were determined as an indication of the relative phytotoxicity of antimicrobial peptides. Black Mexican Sweet (BMS) cell suspension cultures were maintained by transferring 25 mls of cell culture to 25 mls of fresh MSA2D media (4.4 g bottle of Murashige and Skoog basal salt mixture Sigma catalog No. M5524, 100 mg myoinositol, 150 mg L-asparagine, 30 g sucrose, 20 mls of 0.1 mg/ml 2.4-dichlorophenoxy acetic acid stock and 1 ml of vitamin stock consisting of 25 mg/100 ml calcium pantothenate, 50 mg/100 ml pyridoxine, 50 mg/100 ml nicotinic acid, 50 mg/100 ml thiamine, 200 mg/100 ml glycine all added to 1 liter sterile distilled water followed by autoclaving 25 minutes at 121° C.) in a capped sterile 250 ml Erlenmeyer flask 3 days after culture initiation. Four days later 12.5 mls of the cell culture was transferred to 35.5 mls of fresh MSA2D media. Cultures were continuously maintained by alternating 3 and 4 day transfer regimes. The cultures were shaken in low light at 125 RPM at room temperature. For oxygen consumption experiments cells were used one day after transferring to fresh media. Cells were poured into a sterile 50 ml centrifuge tube and allowed to settle by gravity. Spent media was drawn off and 7.8 mls of fresh MSA2D media was added per gram of settled cells. The cell stock solution was placed on a shaker for continued aeration and was used in all assays conducted on that day.
An oxygen electrode (Hansatech Limited, Kings' Lynn, Norfolk, England) was inspected to insure that no corrosion was present. A saturated KCl solution was then placed in the clean electrode well. A 1 inch square of rolling paper or lens paper was cut and placed over the well so that the edges of the paper soaked up KCl and formed an ionic bridge. A 1 inch square of teflon membrane was cut, being careful not to touch the surface, and placed over the soaked rolling paper. A membrane applicator was used to press an O-ring over the head of the electrode thereby securing paper and membrane across the electrode. The CB-1D control box (Hansatech Limited) was turned on and allowed to warm up approximately one hour before calibration. The CB-1D control box was set at 1X output. A chart recorder was set at 0.05 V input with a chart speed of 3 cm/min. A circulating water bath set at 20° C. was hooked up to the electrode chamber. The entire system was calibrated using air-saturated water obtained by vigorously shaking a wash bottle of distilled water. Using the gain switch, the output was set so that the pen on the chart recorder was at the maximum chart height (900=top). The oxygen concentration of air-saturated water was assumed to be 276 nmole/mL at 20° C. All air was removed from the water in the cuvette by adding 2-3 mg of sodium dithionite. The pen on the chart recorder responded by moving to the bottom of the graph. If the slope of the line was unstable, the membrane and rolling paper were removed and the set-up steps were repeated.
For a 1 mL assay, 888 uL water and 62.5 uL BMS stock cell suspension were added to the oxygen electrode cuvette. The final concentration of cells used in the assay was approximately 8 mg/mL. The rate of oxygen consumed by the cells was monitored on the chart recorder for 3 minutes. Fifty microliters of peptide was then added to the cuvette using a Hamilton syringe. (Peptide stocks were adjusted to deliver the desired concentration in a 50 uL volume). Oxygen consumption was monitored for 5 minutes after peptide addition. The time period for the complete test was 8 minutes.
The rate of suppression of oxygen consumption after the addition of a peptide was determined by comparing the slope of the line before the addition of the peptide to the slope of the line at a set time point after addition of the peptide. The rate of oxygen consumption after addition of the peptide was divided by the initial control rate of oxygen consumption and then multiplied by 100. […]

[2] = tested on: isolated chloroplasts; assay: Oxygen evolution bioassay, phytotoxicity (isolated chloroplasts); type: cell-based, Spinach (Spinacia oleracea L. var. Melody); conditions: for inhibition of oxygen evolution: 8 uM
Procedure: The following procedure for the preparation of chloroplasts to use in an oxygen electrode is similar to that of Gupta et al., "Development and Use of Chlorotetracycline Fluorescence as a Measurement Assay of Chloroplast Envelope-Bound Mg^2+, "Plant Physiol. 89, (1989) 753-761. Spinach (Spinacia oleracea L. var. `Melody`) was grown in 1:1 peat/vermiculite potting mix in a growth chamber with a 10 hour light period. The chamber temperature was maintained at 21° C. (day) and 16° C. (night) during the growth period. All plants were used for chloroplast isolation after 6-8 weeks of growth.
In order to obtain an enriched chloroplast fraction, about 12 g of deribbed spinach leaves were thoroughly washed and surface dried. The leaves were then cut into small pieces, each about 1/2 inch square, and were placed in a small blender jar containing 50 mL of chilled homogenization medium (0.33M sorbitol, 50 mM Hepes-NaOH, pH 6.8, 2mM Na2 EDTA, 1 mM MnCl2, 1 mM MgCl2). The tissue was blended twice for three second intervals on high speed in a blender. The resulting homogenate was filtered through four layers of cheesecloth and two layers of miracloth (Behring Diagnostics, La Jolla, Calif.) into two chilled 30 mL glass centrifuge tubes. The filtered solution was centrifuged for 1.0 minute at 750 g (2,200 RPM) in a JS 13.1 swinging bucket rotor in a Beckman J2-21M centrifuge (Beckman Instruments, Inc., Somerset, N.J.). The supernatant was then decanted and the pellet was gently resuspended by swirling at 0° C. About 15 mL of homogenization medium was added to each tube of chloroplasts before the chloroplasts were layered onto a 40% Percoll gradient (6 mL Percoll, 9 mL homogenization medium, and 0.03 g bovine serum albumin) in a 30 mL glass centrifuge tube. These tubes were centrifuged for 4.0 minutes at 2500 g (4000 RPM) in a JS 13.1 swinging bucket rotor in a Beckman J2-21M centrifuge. The supernatant was removed and the resulting pellet was resuspended in a small amount of homogenization medium (about 500 microliters).
Plastid concentration was generally expressed on a chlorophyll basis. Chlorophyll was determined by the method of Arnon "Copper Enzymes in Isolated Chloroplasts, Polyphenol Oxidase in Beta Vulgaris," Plant Physiol. 24, (1949) 1-15. About 50 microliters of chloroplast stock suspension was added to 10 mL of 80% acetone and this solution was incubated 5.0 minutes in the dark and then centrifuged for 5.0 minutes at 500 g (1630 RPM) in a Beckman GP centrifuge. The absorbance of the acetone-chloroplast solution was monitored at 645 nm, at 663 nm and at 730 nm. The chlorophyll concentration was then calculated as 10× [(absorbance at 645 nm×20.2)+(absorbance at 663 nm×8.02)--background at 730 nm]. This gave the amount of chlorophyll in micrograms for the original 50 microliters of chloroplasts. The concentration of chloroplasts was then adjusted with homogenization medium so that 50 microliters of suspension contained 26 micrograms of chlorophyll. These chloroplasts were only active for 11/2 to 2 hours and were therefore used immediately.
An oxygen electrode (Hansatech Instruments Ltd., Kings Lynn, Norfolk, England) was used to measure oxygen evolution from isolated chloroplasts. For a detailed discussion of the method see, D. Walker, "The Use of the Oxygen Electrode and Fluorescence Probes in Simple Measurements of Photosynthesis," supra. A saturated KCl solution was placed in the electrode well and a one-inch square of rolling paper or lens paper was placed in to the electrode well so that it soaked up KCl and formed an ionic bridge. A one-inch square of teflon membrane was then prepared, being careful not to touch its surface, and was placed over the soaked paper. Using the membrane applicator, an O ring was placed over the head of the electrode, thereby securing paper and membrane across the electrode. The CB-1D control box was turned on and the system was allowed to warm up approximately one hour before calibration. […]

[3] = tested on: extracellular plant proteases; assay: in vitro; conditions: pH 7.4
Text: In an attempt to determine the sensitivity of peptides to extracellular plant proteases, and to determine the site or sites of processing by these proteases, a system was designed to obtain extracellular fluid from leaves of maize, tobacco, or potato and to use these to test the stability of various peptides.
Extracellular fluid (ECF) was obtained by cutting interveinal pieces from tobacco leaf after they were rinsed in deionized water. The segments were submerged in water in a vacuum desicator and vacuum was applied for 5 to 10 min. The vacuum was released slowly, the leaves were blotted dry and 4 to 5 pieces were rolled and placed in a 50 mL disposable syringe barrel cut down so as to be able to fit in a swinging bucket centrigue rotor. The syringe barrel was placed in a 50 mL screw cap conical centrifuge tube and centrifuged in a swinging bucket rotor at 600×g for 30 min. The liquid was recovered and centrifuged in a microfuge for 10 min. The supernatant was stored at -80° C. and used in subsequent experiments.
To test the stability of a peptide to extracellular plant proteases, 10 ug of the peptide (1 mg/mL) was incubated with 10% extracellular fluid in 50 mM Tris HCL buffer, pH 7.4. The peptides tested were prepared or obtained as described in Examples 6, 13, and 14. After incubation at 37° C. for 0, 15, 30, 45 and 60 min the proteases were inactivated by the addition of trifluoroacetic acid (TFA) to 1% final concentration (v/v).
Peptides were analyzed by reverse phase chromatography on a 2.1×30 mm POROS R/H column (PerSpective Biosystems, Cambridge, Mass.) using a 5 to 35% acetonitrile gradient in 0.1% TFA on a Hewlett-Packard HP1090 high pressure liquid chromatograph (Hewlett Packard, Avondale, Pa.) at 3.5 mL/min.

[4] = tested on: plant protease
[5] = Phytotoxicity (method not given)
[6] = tested on: plant protease; conditions: cited from earlier work
[7] = 10% extracellular fluid from tobacco leaf

## GIGKFLHSAGKFGKAFVGEIMKS [Peptide No. 2, Magainin 1]
[1]
  Percent Inhibition of Oxygen Consumption Caused by Addition of 4 μM Peptide: 52 +/- 6%
  phytotoxic effect on whole cells, oxygen consumption (in words): greater overall phytotoxic effect on whole cells

## SNMIEGVFAKGFKKASHLFKGIG [Peptide No. 8, Reverse Magainin 2]
[2]
  phytotoxicity effect compared to native Magainin 2 (in words): extremely low Phytotoxicity effect
[1]
  Percent Inhibition of Oxygen Consumption Caused by Addition of 4 μM Peptide: 16 +/- 12%

## MGIGKFLREAGKFGKAFVGEIMKGIGKFLREAGKFGKAFVGEIMKP [Peptide No. 15, Head-to-tail peptide Nos. 11 and 12***]
[2]
  inhibition of oxygen evolution: 100%

## GIGKFLHSAKKFGKAFVGEIMNS [Peptide No. 1, Magainin 2]
[1]; Table V
  phytotoxic effect on whole cells, oxygen consumption (in words): much higher level of inhibition of oxygen consumption
[3]; [7]
  remaining at 0.25 h: 23%
  remaining at 0.5 h: 18%
  remaining at 0.75 h: 5.3%
  remaining at 1 h: 0.5%
[3]; Time 0 min, 10% extracellular fluid, 37° C.
  Percentage of Area Under the Parent Peak: 100 Percentage

## CGIGKFLREAGKFGKAFVGEIMKP [Peptide No. 13, Cys [Arg 7, Glu 8, Pro 23] Mag 1]
[2]
  inhibition of oxygen evolution: 100%

## GIGKFLHSAKKFGKAFVGEIMNSGGGGGGIGKFLHSAKKFGKAFVGEIMNS [Peptide No. 6, Mag 2 dimer (bridged)]
[2]
  inhibition of oxygen evolution: 100%

## GIGKFLHSAKKFGKAFVGEIMNSGIGKFLHSAKKFGKAFVGEIMNS [Peptide No. 5, (Mag 2)-(Mag 2)]
[2]
  inhibition of oxygen evolution: 100%
[1]
  Percent Inhibition of Oxygen Consumption Caused by Addition of 4 μM Peptide: 72 +/- 13%
  phytotoxic effect on whole cells, oxygen consumption (in words): no significantly different effect on phytotoxicity

## KWKLFKKIEKVGQNIRDGIIKAGPAVAVVGQATQIAK-NH2 [Peptide No. 3, Cecropin A-NH2, reference compound]
[2]
  inhibition of oxygen evolution: 100%

## SWLSKTAKKLENSAKKRISEGIAIAIQGGPR [Peptide No. 4, P1]
[1]; Table V
  phytotoxic effect on whole cells, oxygen consumption (in words): greater overall phytotoxic effect on whole cells
[4]
  susceptibility to proteolysis (in words): very low
[5]
  phytotoxicity (in words): very low

## GIGKFLHEAKKFGKAFVGEIMNS [Peptide No. 10, [Glu 8] Mag 2]
[6]
  decrease in the susceptibility to proteolytic degradation: ≥ 50%
